From article PMC12136037, “Type II kinase inhibitors that target Parkinson’s disease–associated LRRK2” (Science Advances, 2025)

Experiments:
Assay in all cases: DSF 100 kinase selectivity screen;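 note: compound tested at 20 µM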
Assay type in all cases: binding
[1] = target: T1, ~100 representative kinases (Homo sapiens, UniProt P00519); conditions: Protein ABL1; average of three replicates
T1 construct: Recombinant protein kinase domains with a concentration of 2 μM
Procedure, shortened: (§1)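 Each kinase domain, at 2 μM, is mixed with 20 μM test compound and SYPRO Orange in Hepes (20 mM, pH 7.5) with 500 mM NaCl. Temperature is then raised at 3°C/min and fluorescence-monitored unfolding yields the melting temperature change, ΔTm in degrees Celsius.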

[2] = target: T2, ~100 representative kinases (Homo sapiens, UniProt P11309); conditions: protein PIM1; average of three replicates
T2 construct: Recombinant protein kinase domains with a concentration of 2 μM
T2 sequence (P11309 whole entry, the tested form may be a part): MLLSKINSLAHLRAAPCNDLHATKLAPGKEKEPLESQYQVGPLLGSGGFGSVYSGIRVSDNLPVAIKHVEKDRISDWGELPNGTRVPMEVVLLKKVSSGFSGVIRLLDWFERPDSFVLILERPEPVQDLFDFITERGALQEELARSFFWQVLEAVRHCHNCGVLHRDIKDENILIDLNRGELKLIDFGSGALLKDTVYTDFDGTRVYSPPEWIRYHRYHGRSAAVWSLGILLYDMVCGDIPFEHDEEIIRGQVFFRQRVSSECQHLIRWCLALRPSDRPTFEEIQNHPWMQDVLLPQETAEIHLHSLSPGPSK
Procedure, shortened: as §1

[3] = target: T3, ~100 representative kinases (Homo sapiens, UniProt P27448); conditions: protein MARK3; average of three replicates
T3 construct: Recombinant protein kinase domains with a concentration of 2 μM
T3 sequence (P27448 whole entry, the tested form may be a part): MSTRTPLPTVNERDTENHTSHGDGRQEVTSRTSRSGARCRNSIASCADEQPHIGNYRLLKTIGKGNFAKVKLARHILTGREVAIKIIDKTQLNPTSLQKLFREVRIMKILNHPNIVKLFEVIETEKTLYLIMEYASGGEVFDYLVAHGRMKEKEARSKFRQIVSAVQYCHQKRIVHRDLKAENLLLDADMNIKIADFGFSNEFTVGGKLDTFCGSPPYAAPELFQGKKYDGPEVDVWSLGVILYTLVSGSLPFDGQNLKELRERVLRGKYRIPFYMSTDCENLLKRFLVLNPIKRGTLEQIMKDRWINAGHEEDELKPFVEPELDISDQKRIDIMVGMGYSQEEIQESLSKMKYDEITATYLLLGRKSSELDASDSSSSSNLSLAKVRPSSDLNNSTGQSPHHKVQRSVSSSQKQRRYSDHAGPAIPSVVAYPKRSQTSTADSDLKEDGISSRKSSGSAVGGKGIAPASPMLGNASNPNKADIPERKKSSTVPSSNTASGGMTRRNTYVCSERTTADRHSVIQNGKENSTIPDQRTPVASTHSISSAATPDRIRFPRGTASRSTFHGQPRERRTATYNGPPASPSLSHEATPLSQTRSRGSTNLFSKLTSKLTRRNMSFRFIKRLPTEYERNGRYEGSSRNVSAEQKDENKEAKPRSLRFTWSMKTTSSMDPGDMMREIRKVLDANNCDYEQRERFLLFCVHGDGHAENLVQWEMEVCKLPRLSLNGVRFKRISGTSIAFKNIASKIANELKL
Procedure, shortened: as §1

[4] = target: T4, ~100 representative kinases (Homo sapiens, UniProt P49761); conditions: Protein CLK3; average of three replicates
T4 construct: Recombinant protein kinase domains with a concentration of 2 μM
T4 sequence (P49761 whole entry, the tested form may be a part): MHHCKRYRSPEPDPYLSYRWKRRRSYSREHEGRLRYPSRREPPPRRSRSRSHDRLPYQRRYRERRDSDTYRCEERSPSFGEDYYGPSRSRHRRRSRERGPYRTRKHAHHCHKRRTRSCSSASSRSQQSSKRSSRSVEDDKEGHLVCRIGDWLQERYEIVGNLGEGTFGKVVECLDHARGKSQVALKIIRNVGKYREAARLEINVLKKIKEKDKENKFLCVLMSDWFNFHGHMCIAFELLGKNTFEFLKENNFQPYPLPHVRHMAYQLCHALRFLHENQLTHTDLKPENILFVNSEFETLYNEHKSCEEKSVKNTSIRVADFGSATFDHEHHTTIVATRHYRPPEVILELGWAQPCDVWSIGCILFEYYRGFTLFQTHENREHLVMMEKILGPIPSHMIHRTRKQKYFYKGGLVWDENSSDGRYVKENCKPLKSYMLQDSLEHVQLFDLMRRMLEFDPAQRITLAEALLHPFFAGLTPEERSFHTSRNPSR
Procedure, shortened: as §1

[5] = target: T5, ~100 representative kinases (Homo sapiens, UniProt P55201); conditions: Protein BRPF1; average of three replicates
T5 construct: Recombinant protein kinase domains with a concentration of 2 μM
T5 sequence (P55201 1-1214): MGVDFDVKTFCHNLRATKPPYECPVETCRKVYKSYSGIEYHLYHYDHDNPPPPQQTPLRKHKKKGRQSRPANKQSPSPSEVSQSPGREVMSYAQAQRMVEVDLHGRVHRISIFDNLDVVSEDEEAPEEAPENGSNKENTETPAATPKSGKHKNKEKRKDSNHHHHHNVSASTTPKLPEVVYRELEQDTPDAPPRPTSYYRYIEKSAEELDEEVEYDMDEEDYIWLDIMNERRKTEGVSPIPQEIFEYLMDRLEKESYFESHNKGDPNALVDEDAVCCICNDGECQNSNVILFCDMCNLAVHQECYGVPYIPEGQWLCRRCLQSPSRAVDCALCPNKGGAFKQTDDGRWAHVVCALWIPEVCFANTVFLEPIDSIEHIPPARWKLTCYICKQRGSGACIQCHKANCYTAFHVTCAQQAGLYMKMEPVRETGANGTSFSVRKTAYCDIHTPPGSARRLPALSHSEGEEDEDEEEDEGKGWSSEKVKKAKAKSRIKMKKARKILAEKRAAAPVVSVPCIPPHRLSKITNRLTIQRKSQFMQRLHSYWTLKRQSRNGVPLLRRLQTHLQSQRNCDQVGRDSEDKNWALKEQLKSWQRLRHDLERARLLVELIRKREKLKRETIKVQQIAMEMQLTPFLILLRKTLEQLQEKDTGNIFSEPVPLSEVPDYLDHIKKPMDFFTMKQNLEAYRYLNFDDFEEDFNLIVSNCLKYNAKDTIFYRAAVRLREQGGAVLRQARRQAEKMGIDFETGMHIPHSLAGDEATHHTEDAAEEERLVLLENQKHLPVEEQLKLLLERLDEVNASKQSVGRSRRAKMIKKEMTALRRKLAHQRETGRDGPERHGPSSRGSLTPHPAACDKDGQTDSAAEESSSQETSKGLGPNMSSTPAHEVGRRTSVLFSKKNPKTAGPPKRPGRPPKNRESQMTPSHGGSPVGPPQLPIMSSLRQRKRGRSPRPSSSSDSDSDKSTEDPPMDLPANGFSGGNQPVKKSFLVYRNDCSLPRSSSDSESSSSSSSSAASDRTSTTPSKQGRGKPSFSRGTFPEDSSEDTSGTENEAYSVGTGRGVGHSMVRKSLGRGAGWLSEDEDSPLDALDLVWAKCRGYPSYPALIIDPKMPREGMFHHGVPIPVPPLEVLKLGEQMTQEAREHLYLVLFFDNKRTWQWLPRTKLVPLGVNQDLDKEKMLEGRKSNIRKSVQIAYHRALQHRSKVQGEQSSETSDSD
Procedure, shortened: as §1

[6] = target: T6, ~100 representative kinases (Homo sapiens, UniProt Q13188); conditions: Protein STK3; DSF; average of three replicates
T6 construct: Recombinant protein kinase domains with a concentration of 2 μM
T6 sequence (Q13188 1-491): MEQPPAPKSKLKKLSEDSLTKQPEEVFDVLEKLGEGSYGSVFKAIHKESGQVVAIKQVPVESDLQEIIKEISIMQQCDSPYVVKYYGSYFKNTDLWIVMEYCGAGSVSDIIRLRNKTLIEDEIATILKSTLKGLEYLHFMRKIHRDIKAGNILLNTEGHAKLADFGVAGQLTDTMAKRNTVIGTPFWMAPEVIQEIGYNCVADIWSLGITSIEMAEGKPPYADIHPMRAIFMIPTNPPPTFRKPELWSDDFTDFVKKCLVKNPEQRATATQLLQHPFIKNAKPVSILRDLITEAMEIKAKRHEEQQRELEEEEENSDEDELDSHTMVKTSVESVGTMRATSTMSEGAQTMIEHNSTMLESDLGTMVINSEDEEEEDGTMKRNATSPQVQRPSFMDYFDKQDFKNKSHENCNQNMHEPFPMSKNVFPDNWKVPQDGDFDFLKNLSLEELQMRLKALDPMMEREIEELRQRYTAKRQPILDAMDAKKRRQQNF
Procedure, shortened: as §1

[7] = target: T7, ~100 representative kinases (Homo sapiens, UniProt Q16539); conditions: protein MAPK14; average of three replicates
T7 construct: Recombinant protein kinase domains with a concentration of 2 μM
T7 sequence (Q16539 whole entry, the tested form may be a part): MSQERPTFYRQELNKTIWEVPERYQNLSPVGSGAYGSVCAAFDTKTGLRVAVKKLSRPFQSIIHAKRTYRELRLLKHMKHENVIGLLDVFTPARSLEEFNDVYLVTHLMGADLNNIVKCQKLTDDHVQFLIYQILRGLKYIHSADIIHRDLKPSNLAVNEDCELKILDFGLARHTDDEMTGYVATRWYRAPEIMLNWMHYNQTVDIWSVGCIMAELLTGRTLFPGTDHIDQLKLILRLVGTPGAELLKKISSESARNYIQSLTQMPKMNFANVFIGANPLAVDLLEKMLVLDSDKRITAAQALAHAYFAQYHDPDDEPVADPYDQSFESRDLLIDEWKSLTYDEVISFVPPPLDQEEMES
Procedure, shortened: as §1

[8] = target: T8, ~100 representative kinases (Homo sapiens, UniProt Q6PHR2); conditions: Protein ULK3; DSF; average of three replicates
T8 construct: Recombinant protein kinase domains with a concentration of 2 μM
T8 sequence (Q6PHR2 1-472): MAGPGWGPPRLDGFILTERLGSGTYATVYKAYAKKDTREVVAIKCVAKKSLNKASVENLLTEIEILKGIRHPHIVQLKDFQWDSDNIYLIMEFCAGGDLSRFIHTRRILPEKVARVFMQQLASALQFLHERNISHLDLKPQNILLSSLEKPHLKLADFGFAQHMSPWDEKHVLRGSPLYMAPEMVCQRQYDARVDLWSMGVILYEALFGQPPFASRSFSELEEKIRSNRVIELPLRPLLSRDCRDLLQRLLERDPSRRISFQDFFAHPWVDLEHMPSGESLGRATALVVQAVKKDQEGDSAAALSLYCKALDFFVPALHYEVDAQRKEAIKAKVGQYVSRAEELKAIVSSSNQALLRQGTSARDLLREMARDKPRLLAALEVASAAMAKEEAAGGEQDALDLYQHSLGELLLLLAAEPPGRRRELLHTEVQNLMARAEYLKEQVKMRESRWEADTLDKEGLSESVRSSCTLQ
Procedure, shortened: as §1

[9] = target: T9, ~100 representative kinases (Homo sapiens, UniProt Q8TDX7); conditions: protein NEK7; average of three replicates
T9 construct: Recombinant protein kinase domains with a concentration of 2 μM
T9 sequence (Q8TDX7 whole entry, the tested form may be a part): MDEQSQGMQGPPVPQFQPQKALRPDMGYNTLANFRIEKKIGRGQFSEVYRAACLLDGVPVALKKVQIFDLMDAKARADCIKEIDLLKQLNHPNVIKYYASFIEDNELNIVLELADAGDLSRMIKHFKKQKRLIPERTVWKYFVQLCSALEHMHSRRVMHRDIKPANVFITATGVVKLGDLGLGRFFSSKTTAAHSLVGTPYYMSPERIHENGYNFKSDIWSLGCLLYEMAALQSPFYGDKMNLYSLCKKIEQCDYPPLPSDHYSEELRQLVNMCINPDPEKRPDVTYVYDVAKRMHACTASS
Procedure, shortened: as §1

T1 sequence (P00519 whole entry, the tested form may be a part): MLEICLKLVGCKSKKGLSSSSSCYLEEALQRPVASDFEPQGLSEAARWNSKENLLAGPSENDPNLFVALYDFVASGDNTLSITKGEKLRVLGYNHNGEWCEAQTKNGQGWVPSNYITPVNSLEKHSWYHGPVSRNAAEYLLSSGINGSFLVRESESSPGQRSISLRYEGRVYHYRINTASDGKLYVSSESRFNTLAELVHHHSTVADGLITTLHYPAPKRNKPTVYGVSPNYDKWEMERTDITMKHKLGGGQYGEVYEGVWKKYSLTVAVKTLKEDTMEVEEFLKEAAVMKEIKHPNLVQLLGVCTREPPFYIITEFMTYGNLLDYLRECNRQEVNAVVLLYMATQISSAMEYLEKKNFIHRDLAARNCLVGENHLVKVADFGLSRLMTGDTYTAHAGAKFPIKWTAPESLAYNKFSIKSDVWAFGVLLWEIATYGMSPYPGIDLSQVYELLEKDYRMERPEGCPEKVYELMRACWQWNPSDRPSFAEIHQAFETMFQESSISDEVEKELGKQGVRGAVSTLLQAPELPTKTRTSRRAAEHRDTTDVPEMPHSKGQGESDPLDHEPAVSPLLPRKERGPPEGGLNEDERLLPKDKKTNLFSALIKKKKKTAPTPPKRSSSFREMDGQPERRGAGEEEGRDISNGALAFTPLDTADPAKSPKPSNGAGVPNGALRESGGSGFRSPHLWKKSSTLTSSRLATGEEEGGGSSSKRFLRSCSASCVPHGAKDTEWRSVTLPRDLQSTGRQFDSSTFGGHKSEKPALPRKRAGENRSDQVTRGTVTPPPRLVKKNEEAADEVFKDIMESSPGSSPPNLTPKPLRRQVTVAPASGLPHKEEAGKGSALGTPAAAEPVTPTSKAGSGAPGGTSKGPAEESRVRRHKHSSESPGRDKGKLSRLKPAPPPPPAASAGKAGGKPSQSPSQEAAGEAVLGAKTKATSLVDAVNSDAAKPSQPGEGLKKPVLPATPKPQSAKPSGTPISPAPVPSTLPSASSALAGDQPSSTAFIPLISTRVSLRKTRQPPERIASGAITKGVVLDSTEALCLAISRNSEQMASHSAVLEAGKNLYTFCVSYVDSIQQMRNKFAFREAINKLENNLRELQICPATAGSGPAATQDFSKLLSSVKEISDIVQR

Work on Cc1ccc(C(=O)Nc2ccc(CN3CCN(C)CC3)c(C(F)(F)F)c2)cc1C#Cc1c[nH]c2ncnc(N3CCOCC3)c12 [Compound 1] yielded a dTm [1] of 7.59 K, a dTm [2] of 1.54 K and a dTm [3] of 1.49 K. For the same compound, the dTm [4] was 4.76 K, the dTm [5] was -0.28 K and the dTm [6] was 10.52 K. For the same compound, the dTm [7] was 5.43 K, the dTm [8] was 9.22 K and the dTm [9] was 1.05 K.

O=C(Nc1ccc(F)cc1)C1(C(=O)Nc2cccc(-c3c[nH]c4ncnc(N5CCOCC5)c34)c2)CC1 [Compound 2] showed a dTm [1] of 1.47 K, a dTm [2] of 2.13 K and a dTm [3] of 4.79 K. It also gave a dTm [4] of 3.15 K, a dTm [5] of 0.13 K and a dTm [6] of 7.33 K. For the same compound, the dTm [7] was 0.08 K, the dTm [8] was 7.39 K and the dTm [9] was -0.93 K.

O=C(Nc1cccc(-c2c[nH]c3ncnc(N4CCOCC4)c23)c1)c1cccn(-c2ccc(F)cc2)c1=O [Compound 4] gave a dTm [1] of 2.49 K, a dTm [2] of 0.92 K and a dTm [3] of 4.45 K. It also gave a dTm [4] of 2.86 K, a dTm [5] of -1.48 K and a dTm [6] of 9.51 K. For the same compound, the dTm [7] was 1.17 K, the dTm [8] was 8.63 K and the dTm [9] was -0.10 K.

Compound Cc1cc(NC(=O)C2(C(=O)Nc3ccc(F)cc3)CC2)cc(-c2c[nH]c3ncnc(N4CCOCC4)c23)c1 [Compound 6] has a dTm [1] of 1.02 K, a dTm [2] of 1.27 K and a dTm [3] of 4.35 K. It also gave a dTm [4] of 0.98 K, a dTm [5] of 0.87 K and a dTm [6] of 6.70 K. For the same compound, the dTm [7] was 1.61 K, the dTm [8] was 3.31 K and the dTm [9] was 0.23 K.

With O=C(Nc1cccc(-c2c[nH]c3ncnc(N4CCOCC4)c23)c1)C1(C(=O)Nc2cccc3c2CCC3)CC1 [Compound 11] the dTm [1] was 1.38 K, the dTm [2] was 1.06 K and the dTm [3] was 3.89 K. It also gave a dTm [4] of 1.62 K, a dTm [5] of 1.49 K and a dTm [6] of 4.65 K. It also gave a dTm [7] of 1.60 K, a dTm [8] of 5.81 K and a dTm [9] of 0.84 K.

O=C(Nc1ccccc1)C1(C(=O)Nc2cccc(-c3c[nH]c4ncnc(N5CCOCC5)c34)c2)CC1 [Compound 12] was tested, and the dTm [1] was 1.58 K, the dTm [2] was 3.25 K and the dTm [3] was 4.89 K. The dTm [4] was 2.26 K, the dTm [5] was -0.42 K and the dTm [6] was 6.83 K. It also gave a dTm [7] of 0.0252 K, a dTm [8] of 7.80 K and a dTm [9] of -0.19 K.

O=C(Nc1ccc(Cl)cc1)C1(C(=O)Nc2cccc(-c3c[nH]c4ncnc(N5CCOCC5)c34)c2)CC1 [Compound 13] gave a dTm [1] of 2.64 K, a dTm [2] of 4.69 K and a dTm [3] of 7.72 K. It also gave a dTm [4] of 4.87 K, a dTm [5] of -0.65 K and a dTm [6] of 10.20 K. The dTm [7] was 1.55 K, the dTm [8] was 9.91 K and the dTm [9] was 1.06 K.

Work on Cc1ccc(NC(=O)C2(C(=O)Nc3cccc(-c4c[nH]c5ncnc(N6CCOCC6)c45)c3)CC2)cc1 [Compound 14] yielded a dTm [1] of 1.79 K, a dTm [2] of 1.13 K and a dTm [3] of 4.90 K. For the same compound, the dTm [4] was 2.40 K, the dTm [5] was -0.72 K and the dTm [6] was 7.94 K. For the same compound, the dTm [7] was 0.29 K, the dTm [8] was 7.72 K and the dTm [9] was -0.37 K.

CCc1ccc(NC(=O)C2(C(=O)Nc3cccc(-c4c[nH]c5ncnc(N6CCOCC6)c45)c3)CC2)cc1 [Compound 15] was tested, and the dTm [1] was 1.94 K, the dTm [2] was 1.02 K and the dTm [3] was 6.20 K. For the same compound, the dTm [4] was 2.88 K, the dTm [5] was -0.75 K and the dTm [6] was 8.42 K. For the same compound, the dTm [7] was 0.36 K, the dTm [8] was 8.77 K and the dTm [9] was -0.42 K.

COc1ccc(NC(=O)C2(C(=O)Nc3cccc(-c4c[nH]c5ncnc(N6CCOCC6)c45)c3)CC2)cc1 [Compound 16] was tested, and the dTm [1] was 1.06 K, the dTm [2] was -0.51 K and the dTm [3] was 2.45 K. For the same compound, the dTm [4] was 0.51 K, the dTm [5] was -0.96 K and the dTm [6] was 5.34 K. For the same compound, the dTm [7] was -0.16 K, the dTm [8] was 5.26 K and the dTm [9] was -0.67 K.

With O=C(Nc1cccc(-c2c[nH]c3ncnc(N4CCOCC4)c23)c1)C1(C(=O)Nc2ccc(F)c(F)c2)CC1 [Compound 17] the dTm [1] was 1.22 K, the dTm [2] was 3.60 K and the dTm [3] was 5.81 K. It also gave a dTm [4] of 3.44 K, a dTm [5] of 0.79 K and a dTm [6] of 7.68 K. It also gave a dTm [7] of 0.53 K, a dTm [8] of 7.52 K and a dTm [9] of 1.01 K.

O=C(Nc1cccc(-c2c[nH]c3ncnc(N4CCOCC4)c23)c1)C1(C(=O)Nc2ccc(F)c(Cl)c2)CC1 [Compound 18] was tested, and the dTm [1] was 2.25 K, the dTm [2] was 5.41 K and the dTm [3] was 7.07 K. It also gave a dTm [4] of 4.42 K, a dTm [5] of 1.47 K and a dTm [6] of 8.55 K. It also gave a dTm [7] of 1.31 K, a dTm [8] of 9.54 K and a dTm [9] of 1.61 K.

With O=C(Nc1cccc(-c2c[nH]c3ncnc(N4CCOCC4)c23)c1)C1(C(=O)Nc2ccc(F)c(Br)c2)CC1 [Compound 19] the dTm [1] was 1.83 K, the dTm [2] was 3.98 K and the dTm [3] was 7.11 K. The dTm [4] was 5.09 K, the dTm [5] was 2.17 K and the dTm [6] was 7.71 K. For the same compound, the dTm [7] was 3.30 K, the dTm [8] was 5.66 K and the dTm [9] was -1.14 K.

In the case of Cc1ccc(C(=O)Nc2ccc(CN3CCN(C)CC3)c(C(F)(F)F)c2)cc1C#Cc1cnc2cccnn12 [Ponatinib, reference compound], the dTm [7] is reported as 12.52 K and the dTm [9] is reported as 0.07 K.

With CNC(=O)c1cc(Oc2ccc(NC(=O)Nc3cc(C(C)(C)C)nn3-c3ccc4ncccc4c3)c(F)c2)ccn1 [Rebastinib, reference compound] the dTm [2] was 0.65 K, the dTm [3] was 0.56 K and the dTm [4] was 8.68 K. It also gave a dTm [5] of 1.88 K, a dTm [6] of 9.02 K and a dTm [7] of 20.84 K. For the same compound, the dTm [8] was 3.80 K and the dTm [9] was 3.06 K.

CN[C@@H]1C[C@H]2O[C@@](C)([C@@H]1OC)n1c3ccccc3c3c4c(c5c6ccccc6n2c5c31)C(=O)NC4 [Staurosporine] gave a dTm [6] of 16.47 K.
